The CheMixHub viscosity set

Assay: xn = mol fraction of the nth substance listed

CC(C)CCCC(C)CCCC(C)CCCCC(C)CCCC(C)CCCC(C)C (configuration not stated) + CCCCCC
viscosity [mPa·s]
Conditions | 293.15 K | 298.15 K | 313.15 K
100 kPa, x1 = 0.235 | 1.91 | – | 1.36
100 kPa, x1 = 0.511 | 7.76 | – | 4.15
100 kPa, x1 = 0.743 | 17.5 | – | 8.25
101 kPa, x1 = 0.129 | 0.972 | – | 0.739
101 kPa, x1 = 0.268 | 2.45 | – | 1.63
101 kPa, x1 = 0.469 | 6.3 | – | 3.62
101 kPa, x1 = 0.5661 | – | 10.15 | –
101 kPa, x1 = 0.762 | 18.3 | – | 8.84
101.33 kPa, x1 = 0.129 | 0.972 | – | 0.739
101.33 kPa, x1 = 0.268 | 2.45 | – | 1.63
101.33 kPa, x1 = 0.469 | 6.3 | – | 3.62
101.33 kPa, x1 = 0.762 | 18.3 | – | 8.84

CCCCCCCCCCCCO + CCCCCCC
viscosity [mPa·s], 101.33 kPa
Conditions | 298.15 K | 308.15 K
x1 = 0.0343 | 0.4411 | 0.3932
x1 = 0.0687 | 0.514 | 0.4523
x1 = 0.1389 | 0.7038 | 0.6054
x1 = 0.2173 | 0.9825 | 0.8279
x1 = 0.2965 | 1.372 | 1.126
x1 = 0.392 | 2.04 | 1.632
x1 = 0.4898 | 2.746 | 2.224
x1 = 0.5941 | 4.056 | 3.199
x1 = 0.7213 | 5.958 | 4.858
x1 = 0.7853 | 7.414 | 5.854
x1 = 0.8475 | 9.506 | 7.073
x1 = 0.9227 | 11.73 | 8.856

Cc1ccc(C)cc1 + c1ccccc1
Conditions | viscosity [mPa·s]
293.15 K, 101.33 kPa, x2 = 0.2202 | 0.631
293.15 K, 101.33 kPa, x2 = 0.42 | 0.623
293.15 K, 101.33 kPa, x2 = 0.7393 | 0.627
293.15 K, 101.33 kPa, x2 = 0.8207 | 0.628
298 K, 101.3 kPa, x2 = 0.2099 | 0.603
298 K, 101.3 kPa, x2 = 0.3766 | 0.596
298 K, 101.3 kPa, x2 = 0.5839 | 0.596
298 K, 101.3 kPa, x2 = 0.7205 | 0.596
298 K, 101.3 kPa, x2 = 0.8802 | 0.599
303 K, 101 kPa, x1 = 0.1002 | 0.5613
303 K, 101 kPa, x1 = 0.2018 | 0.5603
303 K, 101 kPa, x1 = 0.3012 | 0.5605
303 K, 101 kPa, x1 = 0.397 | 0.5611
303 K, 101 kPa, x1 = 0.4983 | 0.5617
303 K, 101 kPa, x1 = 0.5959 | 0.5628
303 K, 101 kPa, x1 = 0.7005 | 0.5641
303 K, 101 kPa, x1 = 0.8019 | 0.5666
303 K, 101 kPa, x1 = 0.8988 | 0.5684
303.15 K, 101.33 kPa, x2 = 0.2202 | 0.557
303.15 K, 101.33 kPa, x2 = 0.42 | 0.55
303.15 K, 101.33 kPa, x2 = 0.7393 | 0.55
303.15 K, 101.33 kPa, x2 = 0.8207 | 0.553
313 K, 101 kPa, x1 = 0.1002 | 0.4975
313 K, 101 kPa, x1 = 0.2018 | 0.4982
313 K, 101 kPa, x1 = 0.3012 | 0.4993
313 K, 101 kPa, x1 = 0.397 | 0.502
313 K, 101 kPa, x1 = 0.4983 | 0.5024
313 K, 101 kPa, x1 = 0.5959 | 0.5039
313 K, 101 kPa, x1 = 0.7005 | 0.5071
313 K, 101 kPa, x1 = 0.8019 | 0.509
313 K, 101 kPa, x1 = 0.8988 | 0.5122
313.15 K, 101.33 kPa, x2 = 0.2202 | 0.497
313.15 K, 101.33 kPa, x2 = 0.42 | 0.493
313.15 K, 101.33 kPa, x2 = 0.7393 | 0.49
313.15 K, 101.33 kPa, x2 = 0.8207 | 0.485
318 K, 101.3 kPa, x2 = 0.1977 | 0.4856
318 K, 101.3 kPa, x2 = 0.3756 | 0.4775
318 K, 101.3 kPa, x2 = 0.5821 | 0.4739
318 K, 101.3 kPa, x2 = 0.7212 | 0.472
318 K, 101.3 kPa, x2 = 0.8882 | 0.4718
323 K, 101 kPa, x1 = 0.1002 | 0.4435
323 K, 101 kPa, x1 = 0.2018 | 0.4443
323 K, 101 kPa, x1 = 0.3012 | 0.4462
323 K, 101 kPa, x1 = 0.397 | 0.4502
323 K, 101 kPa, x1 = 0.4983 | 0.4513
323 K, 101 kPa, x1 = 0.5959 | 0.4527
323 K, 101 kPa, x1 = 0.7005 | 0.4554
323 K, 101 kPa, x1 = 0.8019 | 0.4585
323 K, 101 kPa, x1 = 0.8988 | 0.4596
323.15 K, 101.33 kPa, x2 = 0.2202 | 0.45
323.15 K, 101.33 kPa, x2 = 0.42 | 0.447
323.15 K, 101.33 kPa, x2 = 0.7393 | 0.442
323.15 K, 101.33 kPa, x2 = 0.8207 | 0.435

CC(C)CCCC(C)CCCC(C)CCCCC(C)CCCC(C)CCCC(C)C (configuration not stated) + CCCCCCCCCCCCCCCC
298.15 K, 101.33 kPa
Conditions | viscosity [mPa·s]
x2 = 0.045 | 26.05
x2 = 0.099 | 23.59
x2 = 0.1473 | 21.54
x2 = 0.2008 | 19.45
x2 = 0.2977 | 16.16
x2 = 0.4495 | 11.84
x2 = 0.6011 | 8.569
x2 = 0.8001 | 5.307

CCCCCCCCN + CCCCN(CCCC)CCCC
viscosity [mPa·s], 101 kPa
Conditions | x2 = 0.1005 | x2 = 0.202 | x2 = 0.3961 | x2 = 0.5022 | x2 = 0.5949 | x2 = 0.7991 | x2 = 0.8964
303.15 K | 1.149 | 1.138 | 1.126 | 1.125 | 1.127 | 1.14 | 1.151
313.15 K | 0.9719 | 0.9612 | 0.9507 | 0.9506 | 0.9532 | 0.97 | 0.9821

O=Cc1ccccc1 + OCc1ccccc1
293.15 K, 100 kPa
Conditions | viscosity [mPa·s]
x2 = 0.1032 | 1.695
x2 = 0.2 | 1.882
x2 = 0.3007 | 2.114
x2 = 0.4023 | 2.322
x2 = 0.4989 | 2.633
x2 = 0.6013 | 3.114
x2 = 0.688 | 3.591
x2 = 0.8 | 4.366
x2 = 0.8984 | 5.395

CCCCCCCCN + C1CCCCC1
303.15 K, 101 kPa
Conditions | viscosity [mPa·s]
x2 = 0.0971 | 1.138
x2 = 0.1959 | 1.096
x2 = 0.2997 | 1.036
x2 = 0.401 | 0.97
x2 = 0.497 | 0.952
x2 = 0.5993 | 0.913
x2 = 0.6975 | 0.863
x2 = 0.7993 | 0.82
x2 = 0.896 | 0.81

O=Cc1ccccc1 + O=[N+]([O-])c1ccccc1
303.15 K, 101 kPa
Conditions | viscosity [mPa·s]
x1 = 0.3043 | 1.495
x1 = 0.6049 | 1.405
x1 = 0.9018 | 1.295

O=Cc1ccccc1 + ClCCCl
viscosity [mPa·s], 101 kPa
Conditions | x1 = 0.3909 | x1 = 0.8163 | x1 = 0.8165 | x1 = 0.9064
293.15 K | 1.085 | 1.445 | – | –
303.15 K | – | – | 1.225 | 1.285

O=Cc1ccccc1 + CCCCO
viscosity [mPa·s], 101.33 kPa
Conditions | x1 = 0.1021 | x1 = 0.2004 | x1 = 0.3089 | x1 = 0.4057 | x1 = 0.4992 | x1 = 0.6014 | x1 = 0.6982 | x1 = 0.8044 | x1 = 0.9027
293.15 K | 2.662 | 2.48 | 2.294 | 2.14 | 2.001 | 1.86 | 1.735 | 1.608 | 1.498
303.15 K | 2.143 | 2.025 | 1.903 | 1.799 | 1.705 | 1.608 | 1.521 | 1.43 | 1.352
313.15 K | 1.62 | 1.563 | 1.503 | 1.451 | 1.403 | 1.352 | 1.305 | 1.256 | 1.212
323.15 K | 1.088 | 1.086 | 1.084 | 1.082 | 1.081 | 1.079 | 1.077 | 1.075 | 1.074

CCCCCCCCCCCCCCCCCC(=O)OC + ClC=C(Cl)Cl
viscosity [mPa·s], 101 kPa
Conditions | x1 = 0.05 | x1 = 0.1 | x1 = 0.15 | x1 = 0.2 | x1 = 0.25 | x1 = 0.3
298 K | 0.77 | 1.04 | 1.37 | 1.73 | 2.09 | 2.61
303 K | 0.74 | 0.98 | 1.3 | 1.6 | 1.9 | 2.39
308 K | 0.71 | 0.93 | 1.21 | 1.5 | 1.77 | 2.2
313 K | 0.68 | 0.89 | 1.14 | 1.4 | 1.66 | 2.01
